Assay results from patent publication US4459227A, “Para-hydroxyphenylhydrazines as in situ precursors of iminoquinones and quinones” (Duke University, priority 1981, dated 1984).
“Also recorded” adds a separate entry of the source. Read-outs that look alike come from different tables or passages of the source.

Columns and labels:
liver = conditions: cited from earlier work
blue-green algae = conditions: cited from earlier work
[1] = Spectral study of rearrangement/reactions with nucleophiles, reducing and oxidizing agents; type: physicochemical; conditions: for Final Maximum (nm): pH 8-9, ten-fold excess
Experimental: In order to characterize the products of hydrolysis of AA-CHP's, the hydrolysis of Leu-CHP by LAP was studied by absorption spectrophotometry. […] This was also true for the new maximum at 350 nm and for a second new "maximum" which appeared as a low, broad "peak" merging with 350 peak and centered at about 400 nm. However, by 22 minutes (not shown) the absorbance at 300 and 400 nm had diminished in intensity while the 350 maximum continued to increase, albeit at a slower rate. At pH 7.0 (FIG. 8B), the absorbance at 300 nm continued to slowly increase in intensity even up to 90 minutes after dissolving CHP-OEt (0.2 mg) in DMSO (0.02 ml) into 0.05M Phosphate buffer (3 ml). Furthermore, a second maximum at 350 nm developed but it remaind smaller in intensity than the 300 nm peak.
Table 2 summarizes the results of several separate experiments involving the reactions of CHP-OEt, CHA-OEt, pIQ-OEt and pBQ (0.5-1.0 mM) with various nucleophiles (lysine, 3-MPA) reducing agents (NaBH4, 3-MPA) and oxidizing agents (NaIO4, O2) in ten-fold molar excess in Tris-HCl buffer (0.05M, pH 9.0).
In these studies, CHP-OEt, CHA-OEt and pBQ* were all pure compounds, thus, their absorption could be unequivocably assigned, pIQ-OEt was generated by the autoxidation of CHA-OEt in solution and its presence was noted by the appearance of one absorbance maximum at 400 nm and the development of a distinct yellow color to a previously clear solution of CHA-OEt. […] On the other hand, there was a dissimilarity between the spectra of CHP-OEt and CHA-OEt. CHA-OEt was oxidized by O2 or NaIO4 to the pIQ-OEt with a λmax =400 nm whereas NaIO4 had no effect on the rate or nature of spectral change that occurred when . . .

Salmonella typhosa = conditions: 1911; cited from earlier work
fungi = conditions: cited from earlier work
phage (viral) infections = conditions: tissue cultures, p-benzoquinone generated in situ; cited from earlier work
[2] = target: T1, Leucine Aminopeptidase (LAP), type III-CP (Sus scrofa, UniProt P28839); assay: Leucine aminopeptidase in vitro hydrolysis (TLC); type: biochemical; conditions: 1 mg/ml AA-CHP, pH 9.0, up to 12 hours
T1 sequence (P28839 33-519): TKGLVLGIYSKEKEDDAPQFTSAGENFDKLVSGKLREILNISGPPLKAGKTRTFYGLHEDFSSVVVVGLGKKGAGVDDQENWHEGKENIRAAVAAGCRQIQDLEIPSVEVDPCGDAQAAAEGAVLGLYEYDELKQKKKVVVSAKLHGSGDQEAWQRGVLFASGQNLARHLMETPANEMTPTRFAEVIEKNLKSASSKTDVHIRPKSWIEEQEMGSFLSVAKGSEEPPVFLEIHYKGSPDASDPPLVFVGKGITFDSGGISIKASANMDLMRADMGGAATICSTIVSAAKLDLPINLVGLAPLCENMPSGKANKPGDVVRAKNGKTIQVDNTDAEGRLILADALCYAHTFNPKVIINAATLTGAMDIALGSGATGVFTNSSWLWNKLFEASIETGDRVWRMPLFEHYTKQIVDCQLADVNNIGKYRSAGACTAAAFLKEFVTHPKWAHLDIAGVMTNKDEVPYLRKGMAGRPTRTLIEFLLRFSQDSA
Experimental: Leucine Aminopeptidase (LAP), type III-CP (Sigma) was stored at 0°-4° C. in 0.75M saturated […], 0.1M Tris and 0.005M MgCl2 (pH 8) and contained 210 U/ml. Prior to the hydrolysis experiment, LAP (50λ) was activated by incubating it in 0.025M MnCl2 (0.2 ml), 0.5M Tris.HCl buffer (pH 9.0, 0.2 ml) and demineralized and ultra-filtered H2 O (0.6 ml) for at least 2 hours at 37° C. To each sample test tube was added AA-CHP (1.5 mg) in 0.02M Tris HCl buffer (pH 9.0, 0.5 ml) so that the final concentration was 1 mg/ml AA-CHP. […] They were dried and sprayed with 0.2% Ninhydrin in EtOH and the color was developed at 85° C. for 5 minutes. The in vitro hydrolysis of Leu-CHP by LAP was also concomitantly studied by scanning spectrophotometry at different times after the start of incubation with the enzyme. A blank reference cell containing only enzyme and buffer was used.

[3] = test system: Leucine Aminopeptidase (LAP); assay: Hydrolysis of Leu-CHP by LAP studied by absorption spectrophotometry; type: biochemical; conditions: pH 8.5, FIG. 7
Experimental: Leucine Aminopeptidase (LAP), type III-CP (Sigma) was stored at 0°-4° C. in 0.75M saturated […], 0.1M Tris and 0.005M MgCl2 (pH 8) and contained 210 U/ml. Prior to the hydrolysis experiment, LAP (50λ) was activated by incubating it in 0.025M MnCl2 (0.2 ml), 0.5M Tris.HCl buffer (pH 9.0, 0.2 ml) and demineralized and ultra-filtered H2 O (0.6 ml) for at least 2 hours at 37° C. To each sample test tube was added AA-CHP (1.5 mg) in 0.02M Tris HCl buffer (pH 9.0, 0.5 ml) so that the final concentration was 1 mg/ml AA-CHP. The hydrolysis reaction was allowed to proceed for up to 12 hours and then TLC's were performed by spotting the reaction solution (2-3 μl) on cellulose plates and developing them in Butanol (20 ml)/HAc(4ml)/Pyridine(13.3 ml)/H2 O (16 ml) solvent system. […]
In order to characterize the products of hydrolysis of AA-CHP's, the hydrolysis of Leu-CHP by LAP was studied by absorption spectrophotometry. […] However, by 22 minutes (not shown) the absorbance at 300 and 400 nm had diminished in intensity while the 350 maximum continued to increase, albeit at a slower rate. At pH 7.0 (FIG. 8B), the absorbance at 300 nm continued to slowly increase in intensity even up to 90 minutes after dissolving CHP-OEt (0.2 mg) in DMSO (0.02 ml) into 0.05M Phosphate buffer (3 ml). […]

[4] = test system: L1210 murine leukemia cells; assay: Inhibition of 3H-thymidine incorporation into DNA; type: cell-based
Description: An L1210 murine leukemia cell line was maintained in mice (female DBA/2J strain from the Jackson Laboratory, Bar Harbor, Maine) by transferring every seven days via intraperitoneal (i.p.) injection of 10^5 cells. […] The frozen cells maintained their viability for over two years. For all in vitro and in vivo experiments only freshly harvested intraperitoneally grown L1210 cells were used.
A DBA/2J mouse bearing L1210 cells for 6 days after i.p. inoculation of 1×10^5 cells was sacrificed by cervical dislocation and, using sterile technique, the abdominal skin was incised and pinned back. Using two 10 ml syringes with 21 gauge needles, one being filled with cold phosphate buffer saline (PBS) (9 ml, pH 7.4) and in 3 ml increments, the solution was injected into the peritoneal cavity through one side and withdrawn with the other syringe through the other side. The light pink cell suspension was then centrifuged at 2000 rpm for 5 minutes and the supernatant was decanted. […] After 0, 2, 4, 5 or 6 hours preincubation, 3H-Thymidine (1 μl; 1 μC) was added and then the incubation was continued for another 1/2 hour. The cells were then killed and their proteins precipitated with 5% TCA. […] To each vial was then added more PPO/POPOP/Toluene cocktail (1.5 ml) and the samples were counted. […]

[5] = In vivo toxicity (LD50, survival, histology); parameters: species or system mice; conditions: mouse, in vivo, ip, mice
Experimental: (§1) Female DBA/2J mice, 8 weeks old, were injected intraperitoneally with test compound solutions (X, XI, XII, XIII, […]) to give a final concentration of 30 mg/ml.
(§2) In those groups receiving both test compound and cysteine, cysteine (1000 mg/kg) was given i.p. both 1 hour prior to and 2 or 3 hours after i.p. injection of the test compound. In Table 3 are the results of these experiments.

Female DBA/2J mice = assay: In vivo toxicity (LD50, survival, histology)
Experimental: as §1, §2

mice = test system: mice
Experimental: Cysteine hydrochloride was neutralized with 1N NaOH and diluted with PBS so that the final concentration was 30 mg/ml. In those groups that received only the test compounds, a single dose (up to 1000 mg/kg) was given i.p. and any toxic deaths were autopsied and hematoxylin and eosin sections obtained.

[6] = Leu-CHP 1000 mg/kg i.p. with cysteine

For `CC(=O)N=C1C=CC(=O)C=C1` [N-acetyl-p-iminobenzoquinone], the “toxic effects in the liver” value (liver) is listed as “responsible for the toxic effects in the liver”.

For `O=C1C(Cl)=C(Cl)C(=O)c2ccccc21` [2,3-dichloro-1,4-naphthoquinone], the “inhibition of blue-green algae” value (blue-green algae) is given as “inhibited”.

With `O=C1C=CC(=O)C=C1` [pBQ, p-Benzoquinone, reference compound] the “Final Maximum (nm)” value ([1]; compound added: 3-MPA) was 300 nm, the “Final Maximum (nm)” value ([1]; compound added: Lysine) was 350 nm and the “Initial Maximum (nm)” value ([1]; pH 8-9) was 240 nm. The “peak appearing only after several hours with 3-MPA” value ([1]; ten-fold excess 3-MPA, pH 9.0) was 350 nm, the “initial peak with lysine (rapidly diminished)” value ([1]; ten-fold excess lysine, pH 9.0) was 300 nm and the bactericidal activity (Salmonella typhosa) was “potent bactericidal substance”.

For `O=C1C(Cl)=C(Cl)C(=O)C(Cl)=C1Cl` [chloranil, 2,3,5,6-tetrachloro-1,4-benzoquinone], the antifungal properties (fungi) is listed as “marked antifungal properties”.

For `Oc1ccc(O)cc1` [p-benzohydroquinone], the “prevention of phage (viral) infections” value (phage (viral) infections) is listed as “prevent phage (viral) infections from proliferating”.

With `CC(C)C[C@H](N)C(=O)NN(CC(=O)O)c1ccc(O)cc1` [Leu-CHP, βN-(L-leucyl)-αN-(carboxymethyl)-p-hydroxy-phenylhydrazine] the “cleavage/hydrolysis by LAP” value [2] was “able to cleave; also recorded: demonstrated”, the “new, more intense absorption maximum appearing during hydrolysis” value [3] was 350 nm and the “original absorption maximum (disappeared during hydrolysis)” value [3] was 300 nm. The “inhibition of 3H-thymidine incorporation into DNA” value ([4]; no pre-incubation (simultaneous exposure), FIG. 12) was “no inhibition”, the “inhibition of 3H-thymidine incorporation / DNA synthesis (in words)” value ([4]; with pre-incubation) was “degree of inhibition of ^3 H-thymidine incorporation also increased” and the LD50 [5] was 750 to 1000 mg/kg. The survivors/total (Female DBA/2J mice; 600 mg/kg i.p.) was 5/5, the survivors/total (Female DBA/2J mice; 750 mg/kg i.p.) was 3/3 and the survivors/total (Female DBA/2J mice; 1000 mg/kg i.p.) was 0/9. For the same compound, the “acute renal tubular necrosis (in words)” value (Female DBA/2J mice; i.p., mice) was “early signs of ATN”, the “microscopic examination of the heart” value (Female DBA/2J mice; i.p., mice) was “no evidence of a toxic insult” and the “pulmonary congestion and edema (in words)” value (Female DBA/2J mice; i.p., Phe-CHP 600, Leu-CHP 1000, CHP-OEt 550 mg/kg) was “moderate to severe”. For the same compound, the deaths/total (mice; 1000 mg/kg i.p., no cysteine) was “Nine of nine”, the deaths/total (mice; 1000 mg/kg i.p., no cysteine, listed as Leu--CHP) was 9/9 and the “Time of Death” value (mice; [6]) was 72 h. For the same compound, the “pulmonary congestion or edema, histology of mouse that died on Day 3” value (mice; [6]) was “no evidence of pulmonary congestion or edema”, the deaths/total (mice; Leu-CHP 1000 mg/kg i.p. with cysteine 1000 mg/kg before and after) was “one of three” and the deaths/total (mice; Leu-CHP 1000 mg/kg i.p. with cysteine 1000 mg/kg before and after, listed as Leu--CHP) was 1/3. For the same compound, the LD100 (mice; i.p., mice) was 1000 mg/kg, the “Time of Death” value (mice; no cysteine, Leu-CHP 1000 mg/kg, Phe-CHP 600 mg/kg i.p.) was no more than 8 h and the “Time of Death” value (mice; no cysteine, Leu-CHP 1000 mg/kg, Phe-CHP 600 mg/kg i.p., listed as Leu--CHP) was less than 8 h.
